Consider 8 compounds from ChEMBL document CHEMBL1144513, “Synthesis and SAR study of novel 7-(pyridinium-3-yl)-carbonyl imidazo[5,1-b]thiazol-2-yl carbapenems” (2007).

Values after ≈ are worked out from the molar mass of the structure shown.

Type in all cases: functional
Experiment [1] deals with Staphylococcus aureus. The experiment can be described thus: Antibacterial activity against carbapenem and methicillin-resistant Staphylococcus aureus M126HR by agar dilution method.
Experiment [2] concerns Staphylococcus aureus. As to the kind of experiment: Antibacterial activity against methicillin-resistant Staphylococcus aureus M126 by agar dilution method.
The test system of experiment [3] is Staphylococcus aureus. As to the kind of experiment: Antibacterial activity against Staphylococcus aureus 209P JC1 by agar dilution method.
Another experiment deals with Streptococcus pneumoniae. The experiment can be described thus: Antibacterial activity against penicillin-resistant Streptococcus pneumoniae KK133 by agar dilution method.
In the next experiment the test system is Moraxella catarrhalis. As to the kind of experiment: Antibacterial activity against Moraxella catarrhalis W-0500 by agar dilution method.
The subject of the next experiment is Haemophilus influenzae. As to the kind of experiment: Antibacterial activity against beta-lactamase-negative ampicillin-resistant Haemophilus influenzae 870 by agar dilution method.
A further experiment relates to Escherichia coli. The experiment can be described thus: Antibacterial activity against Escherichia coli NIHJ JC2 by agar dilution method.
The subject of a further experiment is Klebsiella pneumoniae. The experiment can be described thus: Antibacterial activity against Klebsiella pneumoniae GN69 by agar dilution method.

On to `C[C@@H](O)[C@H]1C(=O)N2C(C(=O)O)=C(c3cn4cnc(C(=O)c5cn(C)c6ccccc56)c4s3)[C@H](C)[C@H]12`, for which the MIC with Staphylococcus aureus [1] was 8 µg/mL (≈ 16.3 µM); in the experiment with Staphylococcus aureus [2] it was 0.031 µg/mL (≈ 0.0632 µM); with Staphylococcus aureus [3], 8 ng/mL (≈ 0.0163 µM); in the experiment with Streptococcus pneumoniae it was 0.125 µg/mL (≈ 0.255 µM); against Moraxella catarrhalis it was 0.016 µg/mL (≈ 0.0326 µM); against Haemophilus influenzae, 0.125 µg/mL (≈ 0.255 µM). Moreover, the values for the MIC in the experiment on Escherichia coli and with Klebsiella pneumoniae were 4 µg/mL (≈ 8.15 µM) and 8 µg/mL (≈ 16.3 µM), respectively.

With `C[C@@H](O)[C@H]1C(=O)N2C(C(=O)[O-])=C(c3cn4cnc(C(=O)c5ccc[n+](C)c5)c4s3)[C@H](C)[C@H]12`, the MIC in the experiment on Staphylococcus aureus [1] was 4 µg/mL (≈ 8.84 µM); against Staphylococcus aureus [2] it was 1 µg/mL (≈ 2.21 µM); in the experiment with Staphylococcus aureus [3] it was at most 8 ng/mL; in the experiment on Streptococcus pneumoniae it was 0.031 µg/mL (≈ 0.0685 µM); in the experiment on Moraxella catarrhalis, 0.031 µg/mL (≈ 0.0685 µM); in the experiment with Haemophilus influenzae it was 0.063 µg/mL (≈ 0.139 µM). Moreover, the MIC against Escherichia coli and against Klebsiella pneumoniae was 0.063 µg/mL (≈ 0.139 µM) throughout.

With `C[C@@H](O)[C@H]1C(=O)N2C(C(=O)[O-])=C(c3cn4cnc(C(=O)c5ccc[n+](CC(=O)O)c5)c4s3)[C@H](C)[C@H]12`, the MIC against Staphylococcus aureus [1] was found to be 8 µg/mL (≈ 16.1 µM); in the experiment on Staphylococcus aureus [2], 2 µg/mL (≈ 4.03 µM); against Staphylococcus aureus [3] it was 31 ng/mL (≈ 0.0624 µM); against Streptococcus pneumoniae it was 0.063 µg/mL (≈ 0.127 µM); with Moraxella catarrhalis, 0.031 µg/mL (≈ 0.0624 µM); with Haemophilus influenzae, 0.063 µg/mL (≈ 0.127 µM). For the same compound, the values for the MIC against Escherichia coli and in the experiment with Klebsiella pneumoniae were 0.031 µg/mL (≈ 0.0624 µM) and 0.063 µg/mL (≈ 0.127 µM), respectively.

With `CSc1c2sc(C3=C(C(=O)[O-])N4C(=O)[C@H]([C@@H](C)O)[C@H]4[C@H]3C)cn2c[n+]1CC(N)=O`, the MIC was 4 µg/mL (≈ 9.16 µM) in the experiment with Staphylococcus aureus [1]; 1 µg/mL (≈ 2.29 µM) in the experiment on Staphylococcus aureus [2]; 8 ng/mL (≈ 0.0183 µM) in the experiment on Staphylococcus aureus [3]; 0.031 µg/mL (≈ 0.071 µM) against Streptococcus pneumoniae; 0.031 µg/mL (≈ 0.071 µM) against Moraxella catarrhalis; 0.5 µg/mL (≈ 1.15 µM) against Haemophilus influenzae. The MIC against Escherichia coli is 0.016 µg/mL (≈ 0.0367 µM); against Klebsiella pneumoniae it was 0.031 µg/mL (≈ 0.071 µM).

Consider `C[C@@H](O)[C@H]1C(=O)N2C(C(=O)[O-])=C(c3cn4cnc(C(=O)c5ccc[n+](CC(N)=O)c5)c4s3)[C@H](C)[C@H]12`, for which the MIC was 2 µg/mL (≈ 4.04 µM) with Staphylococcus aureus [1]; 0.5 µg/mL (≈ 1.01 µM) with Staphylococcus aureus [2]; at most 8 ng/mL with Staphylococcus aureus [3]; 0.031 µg/mL (≈ 0.0626 µM) against Streptococcus pneumoniae; 0.016 µg/mL (≈ 0.0323 µM) against Moraxella catarrhalis; 0.063 µg/mL (≈ 0.127 µM) against Haemophilus influenzae. For the same compound, the MIC in the experiment with Escherichia coli was found to be 0.031 µg/mL (≈ 0.0626 µM); with Klebsiella pneumoniae, 0.063 µg/mL (≈ 0.127 µM).

`C[C@@H](O)[C@H]1C(=O)N2C(C(=O)[O-])=C(c3cn4cnc(C(=O)c5ccc[n+](CCNS(N)(=O)=O)c5)c4s3)[C@H](C)[C@H]12`: the MIC with Staphylococcus aureus [1] is 2 µg/mL (≈ 3.57 µM); against Staphylococcus aureus [2], 1 µg/mL (≈ 1.78 µM); with Staphylococcus aureus [3] it was at most 8 ng/mL; against Streptococcus pneumoniae, 0.031 µg/mL (≈ 0.0553 µM); in the experiment on Moraxella catarrhalis it was 0.016 µg/mL (≈ 0.0285 µM); in the experiment with Haemophilus influenzae it was 0.063 µg/mL (≈ 0.112 µM). The MIC in the experiment with Escherichia coli was 0.031 µg/mL (≈ 0.0553 µM); against Klebsiella pneumoniae, 0.063 µg/mL (≈ 0.112 µM).

Consider `C[C@@H](O)[C@H]1C(=O)N2C(C(=O)O)=C(c3cn4cnc(C(=O)c5cnc6ccccc6c5)c4s3)[C@H](C)[C@H]12`, for which the MIC was 2 µg/mL (≈ 4.09 µM) in the experiment with Staphylococcus aureus [1]; 0.016 µg/mL (≈ 0.0328 µM) in the experiment with Staphylococcus aureus [2]; at most 8 ng/mL against Staphylococcus aureus [3]; 0.031 µg/mL (≈ 0.0635 µM) in the experiment on Streptococcus pneumoniae; 0.031 µg/mL (≈ 0.0635 µM) in the experiment with Moraxella catarrhalis; 0.125 µg/mL (≈ 0.256 µM) in the experiment on Haemophilus influenzae. The MIC against Escherichia coli came to 4 µg/mL (≈ 8.19 µM); with Klebsiella pneumoniae, 8 µg/mL (≈ 16.4 µM).

`C[C@@H](O)[C@H]1C(=O)N2C(C(=O)[O-])=C(c3cn4cnc(C(=O)c5ccc[n+](Cc6ccccc6)c5)c4s3)[C@H](C)[C@H]12`: the MIC in the experiment with Staphylococcus aureus [1] was 4 µg/mL (≈ 7.57 µM); with Staphylococcus aureus [2], 0.5 µg/mL (≈ 0.946 µM); with Staphylococcus aureus [3], at most 8 ng/mL; in the experiment on Streptococcus pneumoniae it was 0.016 µg/mL (≈ 0.0303 µM); against Moraxella catarrhalis, 0.063 µg/mL (≈ 0.119 µM); against Haemophilus influenzae it was 0.063 µg/mL (≈ 0.119 µM). Moreover, the MIC in the experiment on Escherichia coli was 0.5 µg/mL (≈ 0.946 µM); against Klebsiella pneumoniae it was 1 µg/mL (≈ 1.89 µM).
